The target of assay [1] is T1, Osm1 (Saccharomyces cerevisiae, UniProt P21375, S78K/P162R).
T1 construct: residues 32-501, N-terminal His6 tag and thrombin site in pET28a, E. coli BL21(DE3); tag removed by trypsin for crystals
Put plainly: isothermal titration calorimetry. The settings on record: second FAD-binding pocket; 1 mM FAD injected into 28 µM double mutant.

A further assay deals with T2, Ero1 (Saccharomyces cerevisiae, UniProt Q03103).
T2 construct: residues 56-424, His6-MBP fusion from E. coli Origami B(DE3), H6-MBP cleaved off by TEV protease; FAD-containing
T2 sequence (Q03103 56-424): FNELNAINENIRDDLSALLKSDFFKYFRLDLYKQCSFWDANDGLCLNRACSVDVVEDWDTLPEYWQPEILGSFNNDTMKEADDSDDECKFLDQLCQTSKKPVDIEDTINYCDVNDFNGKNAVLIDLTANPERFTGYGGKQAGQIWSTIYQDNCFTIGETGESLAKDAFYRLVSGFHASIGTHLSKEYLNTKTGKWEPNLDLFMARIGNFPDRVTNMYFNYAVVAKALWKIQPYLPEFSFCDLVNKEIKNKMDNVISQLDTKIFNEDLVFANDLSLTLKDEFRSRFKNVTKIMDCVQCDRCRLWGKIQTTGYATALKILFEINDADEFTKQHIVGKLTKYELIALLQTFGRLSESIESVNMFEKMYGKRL
In words: free flavin reduction at […] nm. The settings on record: free FAD as electron acceptor; DTT and thioredoxin as reductant, airtight, oxygen-depleted. The assay is classed as biochemical.

For assay [2], the target named is T3, Osm1 (Saccharomyces cerevisiae, UniProt P21375).
T3 construct: residues 32-501, N-terminal His6 tag and thrombin site in pET28a, E. coli BL21(DE3); tag removed by trypsin for crystals
In words: isothermal titration calorimetry. It is filed as binding. From the text: isothermal titration calorimetry on Osm1 | Injection of FAD into the ITC sample cell containing holo-Osm1 created an exothermic response

Assay [3] addresses T3, Osm1. In words: X-ray crystal structure, […] Å. It is filed as binding.

T3 sequence (P21375 32-501): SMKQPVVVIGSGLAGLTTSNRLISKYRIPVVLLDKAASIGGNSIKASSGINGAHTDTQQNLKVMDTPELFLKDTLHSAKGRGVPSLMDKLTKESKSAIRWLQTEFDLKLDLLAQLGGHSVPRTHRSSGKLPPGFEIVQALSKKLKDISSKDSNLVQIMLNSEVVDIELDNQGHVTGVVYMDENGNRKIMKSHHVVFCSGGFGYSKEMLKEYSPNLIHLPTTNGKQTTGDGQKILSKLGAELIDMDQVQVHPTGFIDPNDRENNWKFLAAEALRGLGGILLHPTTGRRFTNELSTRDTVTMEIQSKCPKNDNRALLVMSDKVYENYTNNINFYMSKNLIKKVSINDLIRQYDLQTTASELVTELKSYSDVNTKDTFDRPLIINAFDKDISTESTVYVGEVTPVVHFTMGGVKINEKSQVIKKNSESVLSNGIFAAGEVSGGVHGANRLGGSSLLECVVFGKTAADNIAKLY
T1 sequence (P21375 32-501 S78K/P162R): as the sequence (P21375 32-501) above, with S47K, P131R counted along it

For the compound `Cc1cc2nc3c(=O)[nH]c(=O)nc-3n(C[C@H](O)[C@H](O)[C@H](O)COP(=O)(O)OP(=O)(O)OC[C@H]3O[C@@H](n4cnc5c(N)ncnc54)[C@H](O)[C@@H]3O)c2cc1C` [FAD], on Osm1 [1], the “no detectable thermal response” value is listed as “injection of FAD into the S78K/P162R mutant did not show any detectable thermal response”. For the same compound, the “free flavin reduction at 450 nm” value at Ero1 is recorded as “Ero1 could only use free FAD, but not FMN or riboflavin, under oxygen-depleted conditions”. Further, the Kd on Osm1 [2] was 4.92 µM. The “X-ray crystal structure, 1.8 Å” value on Osm1 [3] (first (cofactor) site, non-covalent, complex with fumarate) is “residues, including A45, K66, N73, S74, S79, G80, V194, D260, E467, S482, and L483”.
For `O=C(O)/C=C/C(=O)O` [fumarate], the “X-ray crystal structure, 1.8 Å” value at Osm1 [3] (active site next to the isoalloxazine ring of cofactor FAD) is “S78, S79, H281, R326, H435, R477, and G480 from Osm1 are involved in the binding of fumarate”.

In general, Kd refers to the equilibrium constant for the complex coming apart.

For the origin of these results see PMC6242907, “Molecular basis of maintaining an oxidizing environment under anaerobiosis by soluble fumarate reductase” (Nature Communications, 2018).
